Data as given in paper PMC2063170, “A phase I clinical and pharmacokinetic study of the new topoisomerase inhibitor GI147211 given as a 72-h continuous infusion” (British Journal of Cancer, 1998).
Values joined by “and” are separate entries in the source; they are usually repeats but may differ in a detail not shown here. Identical values can stand only once.

Legend:
melanoma cell line Lox = test system: melanoma cell line Lox; set-up: method as in Emerson et al. 1995; conditions: ref Emerson et al. 1995; cited from earlier work
refractory solid tumours = test: Anti-tumour activity in phase I patients; format: in vivo
Excerpt: (§1) Brrtish Joumal of Cancer(1998) 78(10). 1329-1336 @ 1998 Cancer Research Campaign A phase I clinical and pharmacokinetic study of the new topoisomerase inhibitor G1147211 given as a 72-h continuous infusion L Paz-Aresl*, R Kunkal 2, D DeMarial-3, J Cassidy' 4, M Alden3, P Beranek2, S Kaye', D Littlefield2, D Reilly3, S Depee2, P Wissel2, C Twelves' and P O'Dwyer3 CRC Department of Medical Oncology. University of Glasgow. Westem Infirmary Hospital. Glasgow Gll 6NT. UK; 2Glaxo Wellcome Research. Five Moore Drive. Research Triangle Park. NC 27709. USA; 'Fox Chase Cancer Center. 7701 Burholme Avenue. Philadelphia, PA 19111. USA: 4Thomas Jefferson University. Kimmel Cancer Institute. Bluemle Life Sciences Building. 233 S. 10th Street. Suite 502. Philadelphia. PA 19107. […] This study was designed to determine the maximum tolerated dose of Gl147211 as a 72-h infusion and to describe its pharmacokinetics and pharmacodynamics on this schedule. In a single-arm, rising-dose study in patients with advanced cancer, eight cohorts of three or more patients received 72-h infusions of G1147211 at doses ranging from 0.25 to 2.5 mg m-2 day-'. […] Whole-blood G1147211 lactone, total blood and total concentrations were measured during and over the 12 h following the infusion. […] Extensive phase 11 evaluation of this compound and further phase I trials evaluating more prolonged infusions are ongoing. Keywords: G1147211: GG211: camptothecin analogues: topoisomerase I inhibitor; phase I trial; pharmacokinetics: pharmacodynamics: continuous infusion GI 147211 (7-4 methyl piperazinomethilene)- 10.1 1 -ethylenedioxy - 20-(S camptothecin: Figure 1) is a totally synthetic analogue of camptothecin. a natural product isolated from Camptotheca acuminata (WAall et al. 1966: Emerson et al. 1995). […] The nuclear enzyvme DNA topoisomerase I. x hich relaxes DNA supercoils arising during, replication and gene tran- scription. has been identified as the specific targret of camptothecin (Hsianer and Liu. 1988: Wall and Wani. 1995).

[1] = Initial stability studies of infusion solution; format: physicochemical; conditions: 5% dextrose (average pH 5)
Excerpt: (§2) Brrtish Joumal of Cancer(1998) 78(10). 1329-1336 @ 1998 Cancer Research Campaign A phase I clinical and pharmacokinetic study of the new topoisomerase inhibitor G1147211 given as a 72-h continuous infusion L Paz-Aresl*, R Kunkal 2, D DeMarial-3, J Cassidy' 4, M Alden3, P Beranek2, S Kaye', D Littlefield2, D Reilly3, S Depee2, P Wissel2, C Twelves' and P O'Dwyer3 CRC Department of Medical Oncology. University of Glasgow. Westem Infirmary Hospital. Glasgow Gll 6NT. UK; 2Glaxo Wellcome Research. Five Moore Drive. Research Triangle Park. NC 27709. USA; 'Fox Chase Cancer Center. 7701 Burholme Avenue. Philadelphia, PA 19111. USA: 4Thomas Jefferson University. Kimmel Cancer Institute. Bluemle Life Sciences Building. 233 S. 10th Street. Suite 502. Philadelphia. PA 19107. […] This study was designed to determine the maximum tolerated dose of Gl147211 as a 72-h infusion and to describe its pharmacokinetics and pharmacodynamics on this schedule. In a single-arm, rising-dose study in patients with advanced cancer, eight cohorts of three or more patients received 72-h infusions of G1147211 at doses ranging from 0.25 to 2.5 mg m-2 day-'. […] Whole-blood G1147211 lactone, total blood and total concentrations were measured during and over the 12 h following the infusion. […] Extensive phase 11 evaluation of this compound and further phase I trials evaluating more prolonged infusions are ongoing. […]

[2] = Phase I toxicity (Common Toxicity Criteria), 72-h continuous infusion; conditions: for MTD: 72-h infusion
Excerpt: as §1

[3] = test system: neutrophils and platelets; test: Pharmacodynamics: sigmoid Emax (Hill) fit of % decrease in neutrophils or platelets vs lactone Css; format: in vivo, patients; conditions: sigmoid Emax model
Excerpt: as §2

[4] = heavy pretreatment, 1.2 mg m-2 day-1, n=3
[5] = heavy pretreatment, 1.5 mg m-2 day-1, n=4
[6] = heavy pretreatment, 2.0 mg m-2 day-1, n=1
[7] = minimal pretreatment, 1.5 mg m-2 day-1, n=5
[8] = minimal pretreatment, 1.75 mg m-2 day-1, n=3
[9] = minimal pretreatment, 2.0 mg m-2 day-1, n=10
[10] = minimal pretreatment, 2.5 mg m-2 day-1, n=2

CC[C@@]1(O)C(=O)OCc2c1cc1n(c2=O)Cc2c-1nc1cc3c(cc1c2CN1CCN(C)CC1)OCCO3 [GI147211, 7-4 methyl piperazinomethilene)-10.1 1-ethylenedioxy - 20-(S camptothecin]
50% growth inhibition concentration (melanoma cell line Lox): 0.592 ng/mL
Number of minor responses (refractory solid tumours; 44 patients): two
Number of partial responses (refractory solid tumours; 44 patients): Three
Duration of partial response (refractory solid tumours; individual patients (breast, ovarian, colorectal cancer)): 8 weeks and 30 weeks and ≥ 34 weeks
Decrease in hepatic lesions (refractory solid tumours; patient with colorectal cancer): 44%
Decrease in hepatic lesions (refractory solid tumours; patient with hepatoma): 36%
Stability as a concentrate or as a more dilute solution [1]: stable
Anaemia, patients with worst CTC grade 1 ([2]; 0.25 mg m-2 day-1, n=6): 2 patients
Thrombocytopenia, patients with worst CTC grade 1 ([2]; 0.25 mg m-2 day-1, n=6): 1 patients
Anaemia, patients with worst CTC grade 1 ([2]; 0.50 mg m-2 day-1, n=4): 1 patients
Leucopenia, patients with worst CTC grade 1 ([2]; 0.50 mg m-2 day-1, n=4): 1 patients
Anaemia, patients with worst CTC grade 3 ([2]; 1.0 mg m-2 day-1, n=5): 1 patients
Leucopenia, patients with worst CTC grade 2 ([2]; 1.0 mg m-2 day-1, n=5): 1 patients
Leucopenia, patients with worst CTC grade 3 ([2]; 1.0 mg m-2 day-1, n=5): 1 patients
Neutropenia, patients with worst CTC grade 1 ([2]; 1.0 mg m-2 day-1, n=5): 1 patients
Thrombocytopenia, patients with worst CTC grade 1 ([2]; 1.0 mg m-2 day-1, n=5): 1 patients
Thrombocytopenia, patients with worst CTC grade 4 ([2]; 1.0 mg m-2 day-1, n=5): 1 patients
Patients with central venous catheter associated infections requiring i.v. antibiotics ([2]; 39 patients treated through central venous catheters): Five
Patients complaining of headache while receiving the infusion ([2]; all doses): Twenty
Patients with alopecia ([2]; all doses, 44 patients): 14 patients
Patients with grade I or II nausea ([2]; all doses, 44 patients): Twenty-six
Patients with grade I or II vomiting ([2]; all doses, 44 patients): 16 patients
Patients with grade III vomiting ([2]; all doses, 44 patients): Three
Patients with mild diarrhoea ([2]; all doses, 44 patients): seven
Patients with grade II or III anaemia ([2]; doses > 1.2 mg m-2 day-1): 15 of 29
Phlebitis at the site of venepuncture ([2]; five patients infused through peripheral veins, doses < 1.0 mg m-2 day-1): All of these patients developed phlebitis
Recommended phase II dose ([2]; heavily pretreated patients): 1.2 mg m-2 day-1
MTD ([2]; heavily pretreated patients): 1.2 mg m-2 day-1
Time of platelet nadir after the beginning of the infusion ([2]; heavily pretreated, 1.2 mg m-2 day-1, range 15-22): 18 days
Platelet nadir, median count ([2]; heavily pretreated, 1.2 mg m-2 day-1, range 31-93): 7.5e+10 L⁻¹
Anaemia, patients with worst CTC grade 1 [2, 4]: 1 patients
Anaemia, patients with worst CTC grade 2 [2, 4]: 2 patients
Leucopenia, patients with worst CTC grade 1 [2, 4]: 1 patients
Leucopenia, patients with worst CTC grade 2 [2, 4]: 1 patients
Neutropenia, patients with worst CTC grade 1 [2, 4]: 1 patients
Thrombocytopenia, patients with worst CTC grade 1 [2, 4]: 2 patients
Thrombocytopenia, patients with worst CTC grade 3 [2, 4]: 1 patients
Anaemia, patients with worst CTC grade 1 [2, 5]: 1 patients
Anaemia, patients with worst CTC grade 2 [2, 5]: 2 patients
Leucopenia, patients with worst CTC grade 3 [2, 5]: 2 patients
Leucopenia, patients with worst CTC grade 4 [2, 5]: 1 patients
Neutropenia, patients with worst CTC grade 4 [2, 5]: 3 patients
Thrombocytopenia, patients with worst CTC grade 4 [2, 5]: 3 patients
Anaemia, patients with worst CTC grade 3 [2, 6]: 1 patients
Leucopenia, patients with worst CTC grade 4 [2, 6]: 1 patients
Neutropenia, patients with worst CTC grade 4 [2, 6]: 1 patients
Thrombocytopenia, patients with worst CTC grade 4 [2, 6]: 1 patients
Induction of diarrhoea ([2]; in contrast to irinotecan): does not induce diarrhoea
Patients with grade IV neutropenia who developed fever ([2]; in vivo, iv): Five of the ten
Anaemia, patients with worst CTC grade 2 [2, 7]: 2 patients
Anaemia, patients with worst CTC grade 3 [2, 7]: 2 patients
Leucopenia, patients with worst CTC grade 2 [2, 7]: 2 patients
Leucopenia, patients with worst CTC grade 4 [2, 7]: 1 patients
Neutropenia, patients with worst CTC grade 3 [2, 7]: 2 patients
Neutropenia, patients with worst CTC grade 4 [2, 7]: 1 patients
Thrombocytopenia, patients with worst CTC grade 1 [2, 7]: 1 patients
Thrombocytopenia, patients with worst CTC grade 2 [2, 7]: 1 patients
Thrombocytopenia, patients with worst CTC grade 3 [2, 7]: 1 patients
Thrombocytopenia, patients with worst CTC grade 4 [2, 7]: 1 patients
Anaemia, patients with worst CTC grade 1 [2, 8]: 1 patients
Anaemia, patients with worst CTC grade 3 [2, 8]: 1 patients
Leucopenia, patients with worst CTC grade 3 [2, 8]: 1 patients
Neutropenia, patients with worst CTC grade 3 [2, 8]: 1 patients
Anaemia, patients with worst CTC grade 1 [2, 9]: 4 patients
Anaemia, patients with worst CTC grade 2 [2, 9]: 4 patients
Anaemia, patients with worst CTC grade 3 [2, 9]: 1 patients
Leucopenia, patients with worst CTC grade 1 [2, 9]: 4 patients
Leucopenia, patients with worst CTC grade 2 [2, 9]: 1 patients
Leucopenia, patients with worst CTC grade 3 [2, 9]: 1 patients
Leucopenia, patients with worst CTC grade 4 [2, 9]: 2 patients
Neutropenia, patients with worst CTC grade 1 [2, 9]: 2 patients
Neutropenia, patients with worst CTC grade 2 [2, 9]: 2 patients
Neutropenia, patients with worst CTC grade 4 [2, 9]: 3 patients
Thrombocytopenia, patients with worst CTC grade 1 [2, 9]: 2 patients
Thrombocytopenia, patients with worst CTC grade 2 [2, 9]: 1 patients
Thrombocytopenia, patients with worst CTC grade 3 [2, 9]: 4 patients
Anaemia, patients with worst CTC grade 3 [2, 10]: 1 patients
Leucopenia, patients with worst CTC grade 3 [2, 10]: 1 patients
Leucopenia, patients with worst CTC grade 4 [2, 10]: 1 patients
Neutropenia, patients with worst CTC grade 4 [2, 10]: 2 patients
Thrombocytopenia, patients with worst CTC grade 3 [2, 10]: 1 patients
Thrombocytopenia, patients with worst CTC grade 4 [2, 10]: 1 patients
Dose at which neutropenia was dose limiting ([2]; minimally pretreated patients): 2.0 mg m-2 day-1
MTD ([2]; minimally pretreated patients): 2.0 mg m-2 day-1
Nadir neutrophil count, median value ([2]; minimally pretreated, 2.0 mg m-2 day-1, range 0.02-3.92): 1.59e+09 L⁻¹
Platelet nadir, median value ([2]; minimally pretreated, 2.0 mg m-2 day-1, range 7-219): 7.2e+10 L⁻¹
Day of platelet nadir ([2]; minimally pretreated, 2.0 mg m-2 day-1, range 8-20): 15 days
Time of lowest nadir neutrophil count, median ([2]; minimally pretreated, 2.0 mg m-2 day-1, range 10-22): 16.5 days
Dose at which neutropenia and thrombocytopenia were limiting ([2]; more heavily pretreated patients): 1.5 mg m-2 day-1
Time to recovery of phlebitis ([2]; peripheral vein infusions): 7 to 24 days
Median duration of grade IV neutropenia episodes ([2]; range 1-14): 5 days
Median duration of grade III or IV thrombocytopenia ([2]; range 1-10 days): 4 days
Recommended phase II dose ([2]; untreated/minimally pretreated patients): 1.75 mg m-2 day-1
EC50, half-maximal concentration (lactone Css) for % decrease in neutrophils (ANC) [3]: 0.75 ng/mL and 0.750 ng/mL
EC50, half-maximal concentration (lactone Css) for % decrease in platelets [3]: 1.141 ng/mL
